The text below walks through data of US10039839B2, “Compounds that participate in cooperative binding and uses thereof” (Warp Drive Bio, Inc., priority 2015, dated 2018).

Assay [1] deals with T1, CEP250 (Homo sapiens, UniProt Q9BV73).
T1 construct: CEP25011.4 (residues 2134-2231) (in-house); made in house
Description: SPR binding of CEP250 (analyte) to immobilized FKBP12-F2 binary complex. As to the method: Experiments are performed at 25° C.
On the technique in general: Surface plasmon resonance follows binding to a sensor surface in real time, without labels.

Assay [2] deals with T1, CEP250. Briefly: ITC binding of FKBP12-compound binary complexes to CEP250. To be noted: FKBP12 10 μM + ligand 20 μM, 298 K. The method, then:
This protocol utilizes Isothermal Titration calorimetry (ITC) to directly measure the heat change associated with binding of FKBP12-F2 and FKBP12-F11 binary complexes to CEP250. Measurement of the heat change allows accurate determination of association constants (Ka), reaction stoichiometry (N), and the change in binding enthalpy (ΔH).
FKBP12 stock solution is diluted to 10 μM in assay buffer (1% DMSO final). Compound is added to FKBP12 to 20 μM (1% DMSO final), and binary complex is filled into the reaction cell of the ITC device after 5-10 min pre-incubation time. […] A control experiment in the absence of compound is also run to determine the heat associated with operational artifacts and the dilution of titrant as it is injected from the syringe into the reaction cell.
Data were fitted with the Origin ITC200 software according to the following procedure: • 1) Read raw data • 2) In “mRawITC”: adjust integration peaks and baseline, integrate all peaks • 3) In “Delta H”—data control: remove bad data (injection #1 and other artifacts), subtract straight line (background subtraction) • 4) In “Delta H”—model fitting: select one set of sites model, perform fitting with Levenberg-Marquardt algorithm until Chi Square is not reduced further, finish with “done” (parameters N, Ka and ΔH are calculated based on fitting)

The next assay concerns HeLa-FKBP12 cells. Briefly: Biosensor cell permeability assay, FKBP binding compounds. Format: cell-based. To be noted: 72 hrs. As to the method:
This protocol utilizes a modified FKBP or cyclophilin destabilizing mutant to determine the bioactivity of FKBP binding compounds or cyclophilin binding compounds in whole cell assay.
Plate HeLa-FKBP12 cells (for FKBP binding compounds) or HeLa-Cyclophilin A cells (for cyclophilin binding compounds) and seed overnight at 5 k/well (approximately ˜18 hrs.). Using a multi-channel pipet, take out the old media and add ˜125 ul of new media with compounds. Compounds are diluted using DMEM without Phenol Red, 10% FBS, 1× Sodium Pyruvate, 1× Glutamax. Add 125 ul of media with compound per well. Cells are treated with compounds at concentration: 30, 10, 3.33, 1.11, 0.37, 0.12, 0.04 and 0.013 uM. Time points are taken at 72 hrs and plate read using plate reader with excitation/emission: 575/620.
Cell binding/permeability is calculated in fold-change (Total RFU of treated samples/total RFU of DMSO treated samples or total RFU above background (Total RFU minus total RFU of DMSO treated samples).

The target in assay [3] is T2, FKBP12 (Homo sapiens, UniProt P62942). Description: AlphaLISA: inhibition of binding of biotinylated FK506 to FLAG tagged FKBP12. Details: made in house. As to the method:
This protocol utilizes Perkin Elmers AlphaLISA technology platform to detect FKBP binders by measuring the inhibition of binding of biotinylated FK506 to FLAG tagged FKBP12.
Add 20 uL of 12.5 nM FKBP-FLAG working stock to each well of the 96-well plate. Add 1 uL of test compound (100% DMSO) to each well of the plate using the Janus MTD head and P20 tips (except control wells). Add 1 uL of DMSO to negative control wells and 1 uL of 50 uM FK506 solution to positive control wells. In the dark, add 20 uL of combined Donor/Acceptor beads to each well. Incubate in the dark for 30 minutes at room temperature. In the dark, add 10 uL of 5 nM biotinylated FK506 working stock to each well. Incubate in the dark for 60 minutes at room temperature. Protect plate from light until reading on Biotek Synergy2 Plate Reader; Alphalisa 96-well protocol (680 excitation/615 emission).
For orientation: Bead proximity is the source of the signal in Alpha formats.

The target of assay [4] is T2, FKBP12.
Description: This protocol utilizes Surface Plasmon Resonance (SPR) as a method to determine kinetics (KD, Ka, Kd) for the binding of compound (analyte) to immobilized FKBP12 (ligand).
Experiments are performed at 25° C. Stock solution of 12×HIS tagged FKBP12 is diluted to 100 nM in assay buffer (1% DMSO final). Approximately 500-600 RU of FKBP12 is immobilized on one of two flow cells of an activated NTA chip. The second flow cell is not activated as a reference for non-specific interaction of the analyte to the sensor chip. Various concentrations of compound (1 nM-1 μM range), serially diluted into the same assay buffer (1% DMSO final), are injected onto the FKBP12 surface and reference surface at a flow rate of 10 μl/min. The surface is regenerated between analyte injections with 350 mM EDTA.
The BiaEvaluation software program is used for data fitting. All data is reference subtracted against both the reference flow cell and a buffer injection. For kinetic analyses, data is locally fit to a 1:1 interaction model.
Experiments are performed at 25° C. Stock solution of 12×HIS tagged FKBP12 is diluted to 100 nM in assay buffer (1% DMSO final). Approximately 500-600 RU of FKBP12 is immobilized on one of two flow cells of an activated NTA chip. The second flow cell is not activated as a reference for non-specific interaction of the analyte to the sensor chip.
In assay [5] the target is T3, CEP250 (Homo sapiens, UniProt P62942+Q9BV73).
T3 construct: CEP25011.4 (residues 2134-2231) (in-house); made in house
Briefly: Crystal structure analysis of FKBP12-compound-CEP250 ternary complexes. As to conditions: FKBP12-compound-CEP25011.4 crystal structure. The text has this:
As used herein, the term “buried surface area” refers to the surface area of a protein or a complex that is not exposed to solvent. Buried surface area may be determined by methods known in the art including by calculating inaccessibility to solvent. Inaccessibility to solvent may be calculated computationally with a rolling probe of 1.4 A, using a program such as PDBePISA release version 1.48 (http://www.ebi.ac.uk/pdbe/pisa/).
This protocol describes the crystallization and structure determination method for structures of FKBP12-Compound 2-CEP250 and FKBP12-F11-CEP250 ternary complexes.
A 3:1 molar excess of FKBP12-F2 or FKBP12-F11 binary complex is added to CEP25011.4 and incubated at 4° C. overnight to complete ternary complex formation. Pure ternary complex is isolated by gel filtration purification on a Superdex 200 column in 12.5 mM HEPES pH 7.4, 75 mM NaCl. Purified complex (at 10-20 mg/ml) is subjected to crystallization at 22° C. using sitting drop vapor diffusion. FKBP12-F2-CEP250 crystals grow in a well solution containing 0.2 M sodium malonate, 0.1 M HEPES 7.0, 21% PEG 3350. FKBP12-F11-CEP250 crystals grow in a well solution containing 0.1 M Tris pH 8.5, 0.2 M trimethylamine N-oxide, 22-24% PEG2000 MME. For data collection crystals are transferred to a solution containing mother liquor supplemented with 20-25% glycerol, and then frozen in liquid nitrogen. Diffraction datasets are collected at the Advanced Photon Source (APS) and processed with the HKL program. Molecular replacement solutions are obtained using the program PHASER in the CCP4 suite, using the published structure of FKBP12 (PDB-ID 1FKD) as a search model. Subsequent model building and refinement are performed according to standard protocols with the software packages CCP4 and COOT.

Setting [6] is: FKBP12/F2 complex to CEP25011.4 (residues 2134-2231).
Where [7] appears, read: FKBP12/F2 complex to CEP25029.2 (residues 1982-2231).

The structures appear in SMILES notation.

T2 sequence (P62942 whole entry, species assumed): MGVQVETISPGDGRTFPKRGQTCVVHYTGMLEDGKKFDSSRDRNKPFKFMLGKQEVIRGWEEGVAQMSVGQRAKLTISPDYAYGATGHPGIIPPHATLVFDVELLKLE
T3 sequence (Q9BV73 2134-2231): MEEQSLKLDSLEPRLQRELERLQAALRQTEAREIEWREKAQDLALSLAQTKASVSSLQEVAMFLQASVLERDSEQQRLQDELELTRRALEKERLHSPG
T3 sequence (P62942 whole entry, the tested form may be a part): as the sequence (P62942 whole entry, species assumed) above

For the molecule `CC[C@H](Cc1ccccc1)[C@@H]1/C=C/C/C=C/C[C@@H](C)[C@H](O)[C@@H](C)[C@@H]2CC[C@@H](C)C(=O)C(O)(O2)C(=O)N2CCCC[C@H]2C(=O)O1` [F2, (2S)-1-((4R,7S)-7-((2R,3S,4R,6E,9E,11R,12R)-12-benzyl-3,11-dihydroxy-4-methyltetradeca-6,9-dien-2-yl)-2-hydroxy-4-methyl-3-oxooxepane-2-carbonyl)piperidine-2-carboxylic acid C-11 lactone], on CEP250 [1] (setting [6]), the “dissociation rate constant (koff)” value is given as 3.09×10^−3 1/S and the Kd came out at 5.4 nM. At CEP250 [1] (setting [7]), the “dissociation rate constant (koff)” value is reported as 9.25×10^−5 1/S and the equilibrium dissociation constant (Kd) was 0.29 nM. Also, at CEP250 [2] (CEP25011.4 68 μM), the ΔG was −40.75 kJ*mol−mol−1, the ΔH is −49.37 kJ*mol−mol−1 and the “−T*ΔS” value is 8.62 kJ*mol−mol−1. At CEP250 [2] (CEP25029.4 118 μM), the ΔG is −38.41 kJ*mol−mol−1, the ΔH is reported as −52.21 kJ*mol−mol−1 and the “−T*ΔS” value was determined as 13.80 kJ*mol−mol−1.

In the case of `CC1=C\CC(O)CC(/C(C)=C/C(C)=C/C2C=CC(O)C(O)C2)OC(=O)C2CCCCN2C(=O)CC2(O)OC(C(C)C/C=C/CC(O)\C=C\1)C(C)CC2C` (centres unmarked) [F6], the concentration for half-maximal inhibition (IC50) was < 1000 nM in the assay on HeLa-FKBP12 cells and 60 nM at FKBP12 [3]. The dissociation constant (Kd) at FKBP12 [4] is 141 nM.

As to `COC1C=C(/C=C/C2OC(=O)C3CCCCN3C(=O)C3(O)OC(CCC(C)C3=O)C(C)C3CC4OC(CC(O)C2C)(O3)C(C)CC4C)CCC1O` (centres unmarked) [F7], on FKBP12 [3], the IC50 is 26 nM. The molecule also returned a Kd on FKBP12 [4] of 120 nM.

In the case of `COC1C=C(/C=C/C2OC(=O)C3CCCCN3C(=O)C(=O)C3(O)OC(CCC3C)C(C)C3CC4OC(CC(O)C2C)(O3)C(C)CC4C)CCC1O` (centres unmarked) [F8], the half-maximal inhibitory concentration (IC50) at FKBP12 [3] worked out at 10.6 nM. In addition, the dissociation constant Kd on FKBP12 [4] turned out to be 66 nM.

As to `COC1C(O)CCC(CC(C)C2CCC/C=C/C/C(C)=C/CC3OC(O)(C(=O)C(=O)N4CCCCC4C(=O)O2)C(C)CC3C)C1O` (centres unmarked) [F9], the IC50 was < 1000 nM with HeLa-FKBP12 cells and 0.3 nM at FKBP12 [3]. At FKBP12 [4], this molecule yielded a Kd of 0.23 nM.

`CCC1/C=C(\C)C(O)CCC(C)/C=C/C(O)C(C)C2CCC(C)C(O)(O2)C(=O)C(=O)N2CCCCC2C(=O)OC2C=CC(=CC2O)/C=C(\C)C1` (centres unmarked) [F10]: the concentration for half-maximal inhibition (IC50) with HeLa-FKBP12 cells is > 1000 nM; on FKBP12 [3] it was 21.1 nM. Further, at FKBP12 [4], binding was characterised by a dissociation constant (Kd) of 17.2 nM.

In the case of `CC[C@H](Cc1ccccc1)[C@@H]1CCCCCC[C@@H](C)[C@H](O)[C@@H](C)[C@@H]2CC[C@@H](C)C(=O)C(O)(O2)C(=O)N2CCCCC2C(=O)O1` (stereo partly drawn) [F11, (2S)-1-((4R,7S)-7-((2R,3S,4R,11S,12R)-12-benzyl-3,11-dihydroxy-4-methyltetradecan-2-yl)-2-hydroxy-4-methyl-3-oxooxepane-2-carbonyl)piperidine-2-carboxylic acid C-11 lactone], at CEP250 [2] (CEP25011.4 68 μM), the ΔG is −40.36 kJ*mol−mol−1, the ΔH was −47.78 kJ*mol−mol−1 and the “−T*ΔS” value is 7.41 kJ*mol−mol−1. Moreover, on CEP250 [2] (CEP25029.4 118 μM), the ΔG is reported as −36.74 kJ*mol−mol−1, the ΔH is −58.48 kJ*mol−mol−1 and the “−T*ΔS” value was determined as 21.73 kJ*mol−mol−1. At CEP250 [5], the “buried surface area of CEP250 contributed by FKBP12” value was 590 Å^2, the “total buried surface area of CEP250” value is recorded as 831 Å^2 and the “total buried surface area of the ternary complex” value was determined as 1648 Å^2. Moreover, at FKBP12 [4] (read-out: Ka), the kon was determined as 567000 M⁻¹ s⁻¹.

With `C/C1=C\C2=CC(O)C(C=C2)OC(=O)C2CCCCN2C(=O)C(=O)C2(O)OC(CCC2C)C(C)C(O)/C=C/C(C)CCC(O)/C(C)=C/C(C)C1` (centres unmarked) [F12], the half-maximal inhibitory concentration (IC50) was > 1000 nM in the assay with HeLa-FKBP12 cells and 36.3 nM on FKBP12 [3]. The molecule also showed a Kd on FKBP12 [4] of 21.2 nM.

As to `COC1CC(/C=C(C)/C=C(\C)C2CC(O)C/C=C(C)/C=C/C(O)C/C=C/CC(C)C3OC(O)(CC(=O)N4CCCCC4C(=O)O2)C(C)CC3C)C=CC1O` (centres unmarked) [F13], the half-maximal inhibitory concentration (IC50) in the assay on HeLa-FKBP12 cells is > 1000 nM; at FKBP12 [3] it was 33.6 nM. The molecule further registered a Kd at FKBP12 [4] of 106 nM.

For the molecule `CCC(/C=C(\C)C(O)CCC(C)/C=C/C(O)C(C)C1CCC(C)C(O)(C(=O)C(=O)N2CCCCC2C(=O)O)O1)C/C(C)=C/C1=CC(O)C(O)C=C1` (centres unmarked) [F14], the IC50 in the assay on HeLa-FKBP12 cells is > 1000 nM; at FKBP12 [3], 1800 nM.

Turning to `COC1CC(/C=C(C)/C=C(\C)C2CC(O)C/C=C(C)/C=C/C(=O)C/C=C/CC(C)C3OC(O)(CC(=O)N4CCCCC4C(=O)O2)C(C)CC3C)C=CC1O` (centres unmarked) [F16], the IC50 with HeLa-FKBP12 cells was > 1000 nM; on FKBP12 [3], 67.5 nM. Further, the Kd on FKBP12 [4] worked out at 290 nM.

For the molecule `C/C1=C\CC2OC(O)(C(=O)C(=O)N3CCCCC3C(=O)OC(C(C)CC3CCC(O)C(O)C3)CCC/C=C/C1)C(C)CC2C` (centres unmarked) [F17], the IC50 in the assay on HeLa-FKBP12 cells is < 1000 nM; at FKBP12 [3], 0.26 nM. For the same molecule, on FKBP12 [4], the Kd is 0.2 nM.

Consider `CCC(/C=C(\C)C(O)CCC(C)/C=C/C(O)C(C)C1CCC(C)C(O)(C(=O)C(=O)N2CCCCC2C(=O)O)O1)C/C(C)=C/c1ccc(O)c(O)c1` (centres unmarked) [F18], for which the half-maximal inhibitory concentration (IC50) in the assay on HeLa-FKBP12 cells was < 1000 nM; at FKBP12 [3], 229 nM.

Turning to `COC1CC(CC(C)C2CCC/C=C/C/C(C)=C/CC3OC(O)(C(=O)C(=O)N4CCCCC4C(=O)O2)C(C)CC3C)CCC1O` (centres unmarked) [F19], the half-maximal inhibitory concentration (IC50) in the assay on HeLa-FKBP12 cells is < 1000 nM; at FKBP12 [3], 0.22 nM.

As for `CC(=C\C1C=CC(O)C(O)C1)/C=C(\C)C1CC(O)CC1C(C)(O)/C=C/C(O)C/C=C/CC(C)C1OC(O)(CC(=O)N2CCCCC2C(=O)O)C(C)CC1C` (centres unmarked) [F23], the figures for the IC50 with HeLa-FKBP12 cells and on FKBP12 [3] were > 1000 nM and 4690 nM, respectively.

A word on the Kd: it is the free concentration of one partner at which half of the binding sites on the other are occupied at equilibrium, for simple one-to-one binding. A high value points to weaker binding. The term IC50 denotes the point on the concentration scale where inhibition reaches its midpoint.
